Measured values reported in ChEMBL document CHEMBL4483862, “Open-source discovery of chemical leads for next-generation chemoprotective antimalarials” (2018).

System: Plasmodium berghei
Assay: Luciferase/luciferin-expressing antifolate-resistant parasites were used to infect a culture of HepG2 cells that were pre-incubated with compounds. Infected hepatocytes emit light due to the luciferase reaction. Assay results are presented as the percent inhibition of light emission compared to control. […]
Type: functional
Details: sporozoite; for IC90: read-out: LUCIFERASE INFECTION ASSAY - IC90
[1] = read-out: LUCIFERASE INFECTION ASSAY - IC50

Structure (SMILES)	IC90 [µM]	IC50 [1] [µM]	other results
COc1ccccc1-c1nc(-c2ccc(CCCNC(C)=O)cc2)cs1	> 10	–	IC50 (PBLUC_HILL_SLOPE 1.19, PBLUC_R_SQUARED 0.431, read-out: LUCIFERASE INFECTION ASSAY - IC50): 5.36 µM
O=C(Cn1ncc(Cl)c(Cl)c1=O)Nc1cccc(Oc2ccccc2)c1	> 10	–	IC50 (FFLUC_HILL_SLOPE 8.65, FFLUC_R_SQUARED 0.47, PBLUC_HILL_SLOPE 2.15, PBLUC_R_SQUARED 0.511, read-out: LUCIFERASE INFECTION ASSAY - IC50): 6.79 µM
Cc1cccc(-[n+]2c(C)cc(C=C3Sc4ccc5ccccc5c4N3C)cc2C)c1	0.685	–	IC50 (HEPG2TOX_HILL_SLOPE 1.04, HEPG2TOX_R_SQUARED 0.832, PBLUC_HILL_SLOPE 4.15, PBLUC_R_SQUARED 0.768, read-out: LUCIFERASE INFECTION ASSAY - IC50): 0.403 µM
CC(C)(C)C(=O)c1sc2c(c1N)c(=O)[nH]c(=O)n2C1CCCCC1	3.47	–	IC50 (PBLUC_HILL_SLOPE 15.3, PBLUC_R_SQUARED 0.0878, read-out: LUCIFERASE INFECTION ASSAY - IC50): 3.01 µM
COc1ccc(-c2cnc3cnc(-c4ccc(CNc5ccccc5)cc4)cn23)cn1	8.05	2.72	–
CCOC(=O)c1c(C)[nH]c(C(=O)C(C)N2CCN(c3ccccc3O)CC2)c1C (stereo unspecified)	> 10	–	IC50 (HEPG2TOX_HILL_SLOPE 6.06, HEPG2TOX_R_SQUARED 0.507, PBLUC_HILL_SLOPE 4.15, PBLUC_R_SQUARED 0.577, read-out: LUCIFERASE INFECTION ASSAY - IC50): 7.31 µM
Nc1c(NC2CCCCC2)cc(NCCO)c2c1C(=O)c1ccccc1C2=O	> 8.7	–	IC50 (PBLUC_HILL_SLOPE 3.41, PBLUC_R_SQUARED 0.438, read-out: LUCIFERASE INFECTION ASSAY - IC50): > 8.7 µM
COc1cc2nc(NC(=O)c3[nH]c4c(c3C)C(=O)CCC4)sc2cc1OC	> 10	> 10	–
O=C(NCCN1CCN(c2ncnc3sc4c(c23)CCC4)CC1)c1ccco1	> 10	> 10	–
O=C(Nc1ccc(N2CCCC2)cn1)c1cccc(F)c1	0.0621	–	–
COc1ccc(CCNC2CCc3c(c(C(=O)N(C)C)nn3CC3CCCCC3)C2)cc1 (stereo unspecified)	> 7.52	–	IC50 (PBLUC_HILL_SLOPE 15.6, PBLUC_R_SQUARED 0.553, read-out: LUCIFERASE INFECTION ASSAY - IC50): 7.33 µM
Cc1sc2nc(-c3cccnc3)nc(N3CCN(S(=O)(=O)/C=C/c4ccccc4)CC3)c2c1C	> 10	–	IC50 (PBLUC_HILL_SLOPE 11.2, PBLUC_R_SQUARED 0.469, read-out: LUCIFERASE INFECTION ASSAY - IC50): 8.64 µM
COc1ccc(C(=O)Nc2ccc3nc(-c4ccccc4)nn3c2)cc1OC	> 10	> 10	–
c1cncc(-c2cn3c(-c4cccs4)cnc3cn2)c1	> 11.9	> 11.9	–
C=CCn1c(C)cc(C(=O)CSc2ccc(NC(C)=O)cc2)c1C	2.85	–	IC50 (PBLUC_HILL_SLOPE 1.26, 1.79, PBLUC_R_SQUARED 0.402, 0.760, read-out: LUCIFERASE INFECTION ASSAY - IC50): 1.34 µM
Nc1nc(Nc2cc(Cl)cc(Cl)c2)c2[nH]cnc2n1	8.62	–	IC50 (PBLUC_HILL_SLOPE 2.21, PBLUC_R_SQUARED 0.753, read-out: LUCIFERASE INFECTION ASSAY - IC50): 3.18 µM
Cc1ccc(-c2noc(CN3CCN(c4cc(C)nc(N)n4)CC3)n2)cc1	> 10	–	IC50 (HEPG2TOX_HILL_SLOPE 1.35, HEPG2TOX_R_SQUARED 0.853, PBLUC_HILL_SLOPE 1.09, PBLUC_R_SQUARED 0.613, read-out: LUCIFERASE INFECTION ASSAY - IC50): 1.45 µM
Cc1nc(N2CCN(Cc3ccccc3)CC2)nc2c1C(=O)CC(C)C2 (stereo unspecified)	> 9.42	> 9.42	–
COc1cc(C(=O)Nc2cccc(-c3nc4ccccc4[nH]3)c2)cc(Cl)c1OC	8.28	–	IC50 (HEPG2TOX_HILL_SLOPE 11, HEPG2TOX_R_SQUARED 0.706, PBLUC_HILL_SLOPE 2.74, PBLUC_R_SQUARED 0.344, read-out: LUCIFERASE INFECTION ASSAY - IC50): 3.71 µM
Clc1ccc(-c2nnc(Sc3nc(-c4cccs4)ns3)[nH]2)cc1	> 8.73	> 8.73	–
NC(c1csc(Nc2cc(NCc3ccco3)ncn2)n1)C1CCCCC1 (stereo unspecified)	> 8.58	> 8.58	–
Clc1ccc(-c2nnc(-c3cc(Cl)cc(Cl)c3)o2)cc1	> 10.1	> 10.1	–
S=C(N/N=C\c1cccc2ccccc12)Nc1cccc(Cl)c1Cl	> 8.82	> 8.82	–

Structure (SMILES)	IC90 [µM]	IC50 [1] [µM]	other results
Cn1nc(-c2ccc(C(=O)Nc3ccccc3)s2)cc1C(F)(F)F	8.54	–	IC50 (HEPG2TOX_HILL_SLOPE 17.1, HEPG2TOX_R_SQUARED 0.873, PBLUC_HILL_SLOPE 3.01, PBLUC_R_SQUARED 0.475, read-out: LUCIFERASE INFECTION ASSAY - IC50): 4.12 µM
CN(C)c1ccccc1-c1cn2c(-c3ccc(CO)cc3)cnc2cn1	> 9.58	–	IC50 (HEPG2TOX_HILL_SLOPE 4.17, HEPG2TOX_R_SQUARED 0.686, PBLUC_HILL_SLOPE 6.79, PBLUC_R_SQUARED 0.489, read-out: LUCIFERASE INFECTION ASSAY - IC50): 8.57 µM
CN(/N=C/c1ccc(Cl)cc1)c1ncc(Cl)cc1C(F)(F)F	> 9.48	–	IC50 (PBLUC_HILL_SLOPE 3.36, PBLUC_R_SQUARED 0.0281, read-out: LUCIFERASE INFECTION ASSAY - IC50): 7.13 µM
FC(F)(F)c1nc2ccccc2n2c(-c3ccc(Br)cc3)nnc12	> 8.39	> 8.39	–
Cc1c(C(=O)OCC(=O)c2ccc(OC(F)F)cc2)sc2nc3n(c(=O)c12)CCC3	9.86	–	IC50 (PBLUC_HILL_SLOPE 10.3, PBLUC_R_SQUARED 0.714, read-out: LUCIFERASE INFECTION ASSAY - IC50): 7.97 µM
CCOC(=O)C1=C(CN2CCN(C(c3ccc(F)cc3)c3ccc(F)cc3)CC2)NC(=O)NC1CC (stereo unspecified)	> 10	> 10	–
Cc1ccsc1/C=N/Nc1nc2ccccc2nc1C(F)(F)F	9.51	–	IC50 (HEPG2TOX_HILL_SLOPE 2.86, HEPG2TOX_R_SQUARED 0.79, PBLUC_HILL_SLOPE 19.7, PBLUC_R_SQUARED 0.0461, read-out: LUCIFERASE INFECTION ASSAY - IC50): 8.5 µM
N#Cc1ccc(NC(=O)Nc2ccc(C#N)cc2)cc1	4.08	3.52	–
COc1ccc(-c2cnc3ccc(NCc4ccc5c(c4)OCO5)nn23)cc1	1.36	0.746	–
Fc1ccc(Nc2nccc3nc(-c4ccccc4Cl)[nH]c23)cc1Cl	> 10	–	IC50 (HEPG2TOX_HILL_SLOPE 6.23, HEPG2TOX_R_SQUARED 0.841, PBLUC_HILL_SLOPE 1.89, PBLUC_R_SQUARED 0.243, read-out: LUCIFERASE INFECTION ASSAY - IC50): 5.64 µM
CCNc1ccc(C(=O)Nc2ccc3nc(C)sc3c2)cc1[N+](=O)[O-]	> 10	–	IC50 (HEPG2TOX_HILL_SLOPE 12, HEPG2TOX_R_SQUARED 0.881, PBLUC_HILL_SLOPE 13.1, PBLUC_R_SQUARED 0.554, read-out: LUCIFERASE INFECTION ASSAY - IC50): 8.97 µM
Cc1cccc(C(=O)NCCC(=O)NCc2ccccc2F)c1	> 10	> 10	–
Cc1nn(-c2ccccc2)c(Cl)c1/C=N/Nc1nc2ccccc2[nH]1	> 10	–	IC50 (PBLUC_HILL_SLOPE 3.35, PBLUC_R_SQUARED 0.119, read-out: LUCIFERASE INFECTION ASSAY - IC50): 7.2 µM
O=C(CSc1ncnc2ccccc12)NN1C(=O)NC(c2ccccc2)(c2ccccc2)C1=O	> 10	> 10	–
O=C(Nc1nc2ccccc2n1C1CCCCC1)c1ccoc1	4.66	–	IC50 (HEPG2TOX_HILL_SLOPE 1.84, HEPG2TOX_R_SQUARED 0.834, PBLUC_HILL_SLOPE 10.1, PBLUC_R_SQUARED 0.2, read-out: LUCIFERASE INFECTION ASSAY - IC50): 3.75 µM
CCOC(=O)Cc1csc(SCC(=O)c2cc(C)n(-c3ccc4c(c3)OCO4)c2C)n1	> 10	–	IC50 (PBLUC_HILL_SLOPE 1.81, PBLUC_R_SQUARED 0.311, read-out: LUCIFERASE INFECTION ASSAY - IC50): 4.63 µM
CC1(C)CC2CC(C)(CN2C(=O)CSc2nnc(-c3cc(-c4cccs4)nc4ccccc34)o2)C1 (stereo unspecified)	> 10	–	IC50 (PBLUC_HILL_SLOPE 1.06, PBLUC_R_SQUARED 0.333, read-out: LUCIFERASE INFECTION ASSAY - IC50): > 10 µM
CC(C)c1ccc2c(c1)/C(=N/Nc1ccc(S(=O)(=O)Nc3ccc(Cl)cc3)cc1[N+](=O)[O-])C(=O)N2	> 10	> 10	–
O=C(COC(=O)/C=C/c1cn(-c2ccccc2)nc1-c1ccc(Cl)cc1)NC(=O)NC1CCCC1	> 10	9.03	–
Cc1nc(/C=C/C(=O)Nc2nc3ccccc3[nH]2)cs1	1.37	–	IC50 (HEPG2TOX_HILL_SLOPE 0.99, HEPG2TOX_R_SQUARED 0.611, PBLUC_HILL_SLOPE 0.644, PBLUC_R_SQUARED 0.42, read-out: LUCIFERASE INFECTION ASSAY - IC50): 0.0451 µM
Cc1nn(Cc2ccccc2Cl)c(C)c1CN(C)C(=O)/C=C/c1cnn(-c2ccccc2)c1	9.8	–	IC50 (HEPG2TOX_HILL_SLOPE 2.95, HEPG2TOX_R_SQUARED 0.991, PBLUC_HILL_SLOPE 3.77, PBLUC_R_SQUARED 0.729, read-out: LUCIFERASE INFECTION ASSAY - IC50): 5.47 µM
CCCCOc1ccc(/C=N/Nc2ccc([N+](=O)[O-])cc2)cc1	> 10	> 10	–
O=C(Nc1ccc(Oc2ccc(F)cc2)nc1)c1cccc(-n2cnnn2)c1	> 10	–	IC50 (PBLUC_HILL_SLOPE 8.75, PBLUC_R_SQUARED 0.449, read-out: LUCIFERASE INFECTION ASSAY - IC50): 8.72 µM
